Assays:
[1] = test system: HUMAN RSV-A (“LONG” STRAIN); test: RSV-A assay (CPE, ATPlite) in Hep-2 cells; assay type: cell-based; conditions: human respiratory syncytial virus, 120 h, MOI 0.1, 5-day incubation
Summary of the method: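 Protection from RSV cytopathic effect read by ATP luminescence (ATPlite) after 5-day culture. Genotype A "Long" virus added at MOI 0.1 to Hep-2 monolayers at 8,000 cells/well, pre-dosed with duplicate 2-fold compound dilutions; controls include infected untreated and uninfected wells. EC50 values binned into ranges.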

[2] = test system: hMPV A2 TN/94-49; test: HMPV antiviral assay Method 1 (LLC-MK2 cells, ATP-Lite); assay type: cell-based; conditions: hMPV A2 TN/94-49, LLC-MK2 cells
Experimental: In vitro HMPV antiviral activity was evaluated using the clinical isolate A2 strain TN 94-49 (obtained from Dr. John Williams, Vanderbilt University, Tennessee) and […] cells (ATCC #CCL-7), an immortalized kidney epithelial cell line from Macaca mulatta. Compounds were resuspended in dimethyl sulfoxide (DMSO) at 10 mM, serially diluted and added to a 384-well source plate. Subsequently, the compounds were diluted and transferred onto 384-well assay plates using the Echo-650 automated liquid handling system (Beckman Coulter, Indiana). The test compounds were assessed in duplicate at a top concentration of 2 μM followed by 2.5-fold serial dilutions to give a total of 10 concentration points. DMSO control wells were also included on the assay plates and were either infected or not, acting as positive and negative controls. A2 TN 94-49 virus infections were performed in-suspension with LLC-MK2 cells. The cells were washed twice with PBS and removed from the cell-culture flask with 0.25% trypsin-EDTA (Thermo Fisher Scientific, MA). The trypsin-EDTA was inactivated by resuspending in 2% fetal bovine serum (FBS) and OptiMEM (ThermoFisher Scientific, MA) containing 1% penicillin-streptomycin. Cells were pelleted by centrifuging for 5 minutes at 800 rpm, the supernatant was removed, and cells were re-suspended and washed in PBS plus 100 μg/mL CaCl2). This step was performed twice. Cells were then re-suspended in serum-free (SF)-OptiMEM containing 4 μg/mL TPCK-Trypsin (Sigma Aldrich, MO), 1% penicillin-streptomycin (ThermoFisher Scientific, MA) and 100 μg/mL CaCl2). Cells were counted and seeded at a density of 5,000 cells/well, 12.5 μL/well. Virus infections were done at a multiplicity of infection (MOI) of 0.005 with 12.5 μL added per well. Virus infections were performed in infection media which contained SF-OptiMEM, 100 μg/mL CaCl2) and 1% penicillin-streptomycin. HMPV viral stocks are suspended in infection media+5% glycerol, thus an equal volume of infection media+5% glycerol was added to uninfected wells to equalize the final % glycerol across all wells of the assay plate. The final concentration of TPCK-trypsin was 2 μg/mL. The assay plates were incubated at 37° C., 5% CO2 for 7 days. After 7 days incubation, 12.5 μL of ATP-Lite (PerkinElmer, MA) was added to each well and the raw luminescence values were determined using the Envision 2104 (Perkin Elmer, MA). The average of the raw luminescence values for the cells and virus only positive control wells was subtracted from all conditions tested and the percent cell health was determined by dividing these values by the average of the cells only negative control wells. EC50 values were then calculated by non-linear regression using a four-parameter curve logistic equation. The curve fit model employed was XLFit Dose Response One Site Model 200: y=(A+(B/(1+((x/C)^D)))), where A is the minimum y value, B is the maximum y value, C is the log EC50value, and D is the slope factor. Method 2: In Vitro HMPV Antiviral Activity was Evaluated Using the Clinical Isolate A2 Strain TN 94-49

SMILES	EC50 [1] [nM]	EC50 [2] [nM]
[2H]C([2H])([2H])c1nc2c(OC)cc(C(=O)NC[C@@](O)(c3ccccc3)c3cc4c(c(-c5ccc(F)c(Cl)c5Cl)n3)OC[C@]4(C)C(N)=O)cc2s1 [Example 273]	< 200	< 500
COc1cc(C(=O)NC[C@](O)(c2cc3c(c(-c4cccc(SC(F)(F)F)c4)n2)OC[C@]3(C)C(N)=O)C2CC2)cc2cn(C3CC3)nc12 [Example 36]	< 200	> 500
CCNC(=O)[C@@]1(C)COc2c1cc([C@@](O)(CNC(=O)c1cc(OC)c3nn(C4CC4)cc3c1)c1ccccc1)nc2-c1cc(Cl)c(F)cc1F [Example 142]	< 200	< 500
COc1cc(C(=O)NCC(O)(c2cc3c(c(-c4cc(Cl)c(F)cc4F)n2)OC[C@]3(C)C(N)=O)c2cc3ccccc3s2)cc2cn(C3CC3)nc12 (some centres unmarked) [Example 469]	< 200	> 500
COc1cc(C(=O)NC[C@](O)(c2cc3c(c(-c4ccc(C)c(C(F)(F)F)c4)n2)OC[C@]3(C)C(N)=O)C2CC2)cc2cn(C3CC3)nc12 [Example 56]	< 200	> 500
[2H]C([2H])([2H])c1nc2c(OC)cc(C(=O)NC[C@](O)(c3cc4c(c(-c5cc(Cl)c(F)cc5F)n3)OC[C@]4(C)C(N)=O)C3CC3)cc2s1 [Example 10]	< 200	< 500
COc1cc(C(=O)NC[C@@](O)(c2ccccc2)c2cc3c(c(-c4cccc(Cl)c4Cl)n2)OC[C@]3(C)C(N)=O)cc2cn(C(F)F)nc12 [Example 261]	< 200	< 500
COc1cc(C(=O)NC[C@](O)(c2cc3c(c(-c4cc(Cl)c(Cl)cc4Cl)n2)OC[C@]3(C)C(N)=O)C2CC2)cc2cn(C3CC3)nc12 [Example 62]	< 200	> 500
COc1cc(C(=O)NC[C@@](O)(c2ccsc2)c2cc3c(c(-c4cc(Cl)c(F)cc4F)n2)OC[C@]3(C)C(N)=O)cc2cn(C3(F)CC3)nc12 [Example 175]	< 200	< 500
[2H]c1nc2c(OC)cc(C(=O)NC[C@](O)(c3cc4c(c(-c5cc(F)c(F)cc5F)n3)OC[C@]4(C)C(N)=O)C3CC3)cc2cc1Br [Example 30]	< 200	< 500
COc1cc(C(=O)NC[C@@](O)(c2ccc(F)cc2)c2cc3c(c(-c4cc(Cl)c(F)cc4F)n2)OC[C@]3(C)C(N)=O)cc2cc(C3CC3)nn12 [Example 15]	< 200	< 500
COc1cc(C(=O)NC[C@@](O)(c2cc3c(c(-c4ccc(F)cc4O)n2)OC[C@]3(C)C(N)=O)C2CC2)cc2cn(C3CC3)nc12 [Example 64]	< 200	> 500
[2H]C([2H])([2H])c1nc2c(OC)cc(C(=O)NC[C@](O)(c3cc4c(c(-c5cc(F)c(F)cc5F)n3)OC[C@]4(C)C(N)=O)C3CC3)cc2cc1Br [Example 7]	< 200	< 500
C[C@]1(C(N)=O)COc2c1cc([C@@](O)(CNC(=O)c1cc(OC(F)F)c3nn(C4CC4)cc3c1)C1CC1)nc2-c1cc(F)c(F)cc1F [Example 6]	< 200	< 500
COc1ccc([C@](O)(CNC(=O)c2cc(OC)c3nn(C(F)F)cc3c2)c2cc3c(c(-c4cc(Cl)c(F)cc4F)n2)OC[C@]3(C)C(N)=O)cc1 [Example 167]	< 200	< 500
COc1cc(C(=O)NC[C@@](O)(c2ccccc2)c2cc3c(c(-c4ccc5c(c4Cl)OC(F)(F)O5)n2)OC[C@]3(C)C(N)=O)cc2cn(C3(F)CC3)nc12 [Example 255]	< 200	< 500
COc1cc(C(=O)NC[C@](O)(c2cc3c(c(-c4cc(Cl)cc(C)c4F)n2)OC[C@]3(C)C(N)=O)C2CC2)cc2cn(C3CC3)nc12 [Example 47]	< 200	> 500
[2H]C([2H])([2H])c1cc2cc(C(=O)NC[C@](O)(c3cc4c(c(-c5cc(F)c(F)cc5F)n3)OC[C@]4(C)C(N)=O)C3CC3)cc(OC)c2nc1C([2H])([2H])[2H] [Example 28]	< 200	< 500
COc1cc(C(=O)NC[C@](O)(c2cc3c(c(-c4cc(Cl)cc(Cl)c4Cl)n2)OC[C@]3(C)C(N)=O)C2CC2)cc2cn(C3CC3)nc12 [Example 61]	< 200	< 500

SMILES	EC50 [1] [nM]	EC50 [2] [nM]
COc1cc(C(=O)NC[C@](O)(c2cc3c(c(-c4cc(Cl)c(F)cc4F)n2)OC[C@]3(C)C(N)=O)c2cnn[nH]2)cc2cn(C3CC3)nc12 [Example 180]	< 200	> 500
COc1cc(C(=O)NC[C@](O)(c2cc3c(c(-c4cc(F)c(F)c(F)c4Cl)n2)OC[C@]3(C)C(N)=O)C(F)(F)F)cc2cn(C3CC3)nc12 [Example 59]	< 200	< 500
COc1cc(C(=O)NC[C@](O)(c2cc3c(c(-c4ccc5c(c4Cl)OC(F)(F)O5)n2)OC[C@]3(C)C(N)=O)C(F)(F)F)cc2cn(C3CC3)nc12 [Example 52]	< 200	> 500
COc1cc(C(=O)NC[C@](O)(c2cc3c(c(-c4ccc(F)c(CO)c4F)n2)OC[C@]3(C)C(N)=O)C2CC2)cc2cn(C3CC3)nc12 [Example 72]	< 200	> 500
COc1cc(C(=O)NC[C@@](O)(c2ccccc2)c2cc3c(c(-c4cc(Cl)c(F)cc4F)n2)OC[C@]3(C)C(=O)NC2CC2)cc2cn(C3CC3)nc12 [Example 143]	< 200	< 500
C[C@]1(C(N)=O)COc2c1cc([C@@](O)(CNC(=O)c1cc(OC3CC3)c3nn(C4CC4)cc3c1)c1ccccc1)nc2-c1ccc2c(c1Cl)OC(F)(F)O2 [Example 252]	< 200	< 500
COc1cc(C(=O)NC[C@](O)(c2cc3c(c(-c4cc(C)cc(F)c4F)n2)OC[C@]3(C)C(N)=O)C2CC2)cc2cn(C3CC3)nc12 [Example 49]	< 200	> 500
COc1cc(C(=O)NC[C@@](O)(c2ccc(F)cc2)c2cc3c(c(-c4ccc(F)c(Cl)c4Cl)n2)OC[C@]3(C)C(N)=O)cc2cc(Cl)c(C)nc12 [Example 44]	< 200	< 500
[2H]C([2H])([2H])c1nc2c(OC)cc(C(=O)NC[C@@](O)(c3ccc(OC)cc3)c3cc4c(c(-c5cc(Cl)c(F)cc5F)n3)OC[C@]4(C)C(N)=O)cc2s1 [Example 168]	< 200	< 500
COc1cc(C(=O)NC[C@](O)(c2cc3c(c(-c4cc(F)c(F)cc4F)n2)OC[C@]3(C)C(N)=O)C2CC2)cc2cc(C(F)(F)F)cnc12 [Example 46]	< 200	> 500
COc1cc(C(=O)NC[C@@](O)(c2ccccc2)c2cc3c(c(-c4cc(Cl)c(F)cc4F)n2)OC[C@]3(C)C(N)=O)cc2cc(Cl)c(C)nc12 [Example 159]	< 200	< 500
[2H]C([2H])([2H])c1cc2cc(C(=O)NC[C@](O)(c3cc4c(c(-c5ccc(F)c(Cl)c5)n3)OC[C@]4(C)C(N)=O)C(F)(F)F)cc(OC)c2nc1C [Example 20]	< 200	> 500
COc1cc(C(=O)NC[C@@](O)(c2ccccc2)c2cc3c(c(-c4cc(Cl)c(F)cc4F)n2)OC[C@]3(C)C(N)=O)cc2cc(C)cnc12 [Example 80]	< 200	< 500
COc1cc(C(=O)NC[C@@](O)(c2ccccc2)c2cc3c(c(-c4cc(Cl)c(F)cc4F)n2)OC[C@]3(C)C(N)=O)cc2ccc(C)nc12 [Example 79]		< 500
COc1cc(C(=O)NC[C@@](O)(c2ccc(F)cc2)c2cc3c(c(-c4cc(Cl)c(F)cc4F)n2)OC[C@]3(C)C(N)=O)cc2cn(C(F)F)nc12 [Example 13]	< 200	< 500
COc1cc(C(=O)NC[C@](O)(c2cc3c(c(-c4cc(Cl)c(F)cc4F)n2)OC[C@]3(C)C(N)=O)c2cc(C)cs2)cc2cn(C3CC3)nc12 [Example 467]	< 200	< 500
COc1cc(C(=O)NC[C@@](O)(c2ccccc2)c2cc3c(c(-c4cc(Cl)c(F)cc4F)n2)OC[C@]3(C)C(N)=O)cc2cc(C(F)(F)F)cnc12 [Example 83]		< 500
COc1cc(C(=O)NC[C@@](O)(c2ccccc2)c2cc3c(c(-c4cc(Cl)c(F)cc4F)n2)OC[C@]3(C)C(N)=O)cc2oc(C)nc12 [Example 84]		< 500

— patent US12358921B2, “Antiviral heterocyclic compounds” (priority 2022, dated 2025)
